The values that follow come from patent US6380209B1 (dated 2002).

Each structure is given as a SMILES string. Structures can show the parent of a compound that is named as a salt.

As a reminder, the melting point is the temperature of the solid-liquid transition. `Fc1ccc(-c2cc(NCC3CCNCC3)c3sccc3n2)cc1` (as salt: hydrochloride): the melting point is > 260 °C (dec.).
